Experimental data reported in patent US20040185510A1, “Use of labelled CCK-B receptor ligands for the detection and localization of malignant human tumours” (priority 1996, published 2004).
Non-standard residues stand in square brackets, D forms with d. No end group written: not given here. Nle = CCCC[C@H](N)C(=O)O

Legend:
[1] = molecular target: T1, CCK-B receptors in medullary thyroid carcinoma (MTC) tissue sections (Homo sapiens, UniProt P32239); assay: Receptor autoradiography: displacement of [125I]-desulfated-CCK-10 (compound 13 or 14) binding to MTC tissue sections; conditions: for affinity of the mono 125I-iodinated radioligand: the two mono-iodinated compounds compared with each other
T1 construct: Receptor autoradiography is performed on 10- and 20-μm thick cryostat sections of the various tumour samples; from tissue; host or cells: human medullary thyroid carcinoma (MTC) tissue sections
T1 sequence (P32239 1-447): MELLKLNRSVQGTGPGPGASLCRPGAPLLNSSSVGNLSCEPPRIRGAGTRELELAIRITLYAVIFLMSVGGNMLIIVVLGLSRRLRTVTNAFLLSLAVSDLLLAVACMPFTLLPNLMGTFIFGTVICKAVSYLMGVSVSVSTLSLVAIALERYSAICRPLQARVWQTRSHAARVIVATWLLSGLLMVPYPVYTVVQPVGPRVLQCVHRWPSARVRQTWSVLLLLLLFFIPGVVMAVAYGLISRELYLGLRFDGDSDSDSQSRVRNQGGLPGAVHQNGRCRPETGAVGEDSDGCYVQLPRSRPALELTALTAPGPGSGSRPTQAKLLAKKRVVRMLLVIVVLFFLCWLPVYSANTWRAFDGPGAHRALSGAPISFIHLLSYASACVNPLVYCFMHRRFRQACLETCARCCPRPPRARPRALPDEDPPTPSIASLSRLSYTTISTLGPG
Procedure: The tissues are cut on a cryostat, mounted on microscopes slides, and then stored at −20° C. for at least 3 days to improve adhesion of the tissue to the slide. The slide-mounted tissue sections are allowed to reach room temperature and are preincubated in 50 mmol/l Tris-HCl, 130 mmol/l NaCl, 4.7 mmol/l KCl, 5 mmol/l MgCl2, 1 mmol/l ethylene glycol-bi(β-aminoethylether)-N,N,N′,N′-tetraacetic acid, and 0.5% bovine serum albumin, pH 7.4 (preincubation solution), for 30 min. at 25° C. The slides are then incubated in a solution containing the same medium as the preincubation solution except the bovine serum albumin is omitted, and the following compounds are added: 20000 dpm/100 μl of ^125I-CCK, 0.025% bacitracin, 1 mmol/l dithiothreitol, 2 μg/ml chymostatin, and 4 μg/ml leupeptin, pH=6.5. The slides are incubated at room temperature with the radioligand for 150 min., as described by Mantyh et al. (Gasteroenterology 1994, 107, 1019-30). To estimate non-specific binding, paired serial sections are incubated as described above, except that CCK-8 (sulfated) is added to the incubation medium. After the incubation, the slides are rinsed with four washes of 30 sec each in ice-cold preincubation solution, pH 7.4, dipped in ice-cold water, and then quickly dried in a refrigerator under a stream of cold air. The sections are subsequently exposed to a 3H-Ultrofilm for 1 week, to detect the precise location of the radioactivity.
Each point represents the optical density of binding measured in the tumour area. Non-specific binding is subtracted from all values.

[2] = molecular target: T1, CCK-B receptors in medullary thyroid carcinoma (MTC) tissue sections; assay: Receptor autoradiography: displacement of [125I]-CCK-10 analog (compound 15) binding to MTC tissue sections; conditions: increasing concentrations of unlabelled peptide, optical density in tumour area
Procedure: Receptor autoradiography is performed on 10- and 20-μm thick cryostat sections of the various tumour samples, as described by Reubi et al. (Cancer Res. 1990, 50, 5969-5977).
The tissues are cut on a cryostat, mounted on microscopes slides, and then stored at −20° C. for at least 3 days to improve adhesion of the tissue to the slide. The slide-mounted tissue sections are allowed to reach room temperature and are preincubated in 50 mmol/l Tris-HCl, 130 mmol/l NaCl, 4.7 mmol/l KCl, 5 mmol/l MgCl2, 1 mmol/l ethylene glycol-bi(β-aminoethylether)-N,N,N′,N′-tetraacetic acid, and 0.5% bovine serum albumin, pH 7.4 (preincubation solution), for 30 min. at 25° C. […] The sections are subsequently exposed to a 3H-Ultrofilm for 1 week, to detect the precise location of the radioactivity. […]
Tissue sections are incubated with 20,000 cpm/100 μl [^125I]-CCK-10 and increasing concentrations of unlabelled CCK-8 (unsulfated)(▴), CCK-8 (sulfated) (•) or somastotatin (∘). Each point represents the optical density of binding measured in the tumour area. […]
The displacement curves of DTPA substituted CCK-analogs, prepared as described in Example 2, are measured in order to determine the effect of the DTPA group and of substitution of some amino acids by other amino acids. […]
Each point represents the optical density of binding measured in the tumour area. […]

| affinity of the mono 125I-iodinated radioligand [1] | displacement of [125I]-CCK-10 analog (compound 15) binding [2] | Substance | further results |
| --- | --- | --- | --- |
| same affinity |  | D-Tyr-Gly-Asp-[^125I-Tyr]-Nle-Gly-Trp-Nle-Asp-Phe-NH2 [compound 14] |  |
| same affinity |  | [^125I-D-Tyr]-Gly-Asp-Tyr-Nle-Gly-Trp-Nle-Asp-Phe-NH2 [compound 13] |  |
|  |  | [dY]GDY[Nle]GW[Nle]DF-NH2 [compound 12] | displacement of [125I]-desulfated-CCK-10 (compound 13 or 14) binding ([1]; increasing concentrations of unlabelled peptide): complete displacement |
|  | complete displacement | ^115In-DTPA-Asp-Tyr-Nle-Gly-Trp-Nle-Asp-Phe-NH2 [compound 25] |  |
|  | complete displacement | ^115In-DTPA-DAsp-Tyr-Nle-Gly-Trp-Nle-Asp-Phe-NH2 [compound 26] |  |
